# Reference: patent publication US8735389B2, “Treating psychological conditions using muscarinic receptor M1 antagonists” (priority 2006, dated 2014)
# Experiments:
# [1] = system: muscarinic receptor; conditions: cited from earlier work
# [2] = system: cortical receptors; conditions: cited from earlier work
# [3] = system: cardiac receptors; conditions: cited from earlier work
# [4] = system: male CD-1 mice; experiment: tail suspension test (immobility time); assay type: in vivo
# From the text: Antidepressant Effects: The tail suspension methodology was used to assess compounds for their antidepressant effects. The methodology was adapted from the original description by Stem et al. (Stem L, et al., Psychopharmacol 85:367-70, 1985; Stem L, et al., Prog Neuro-Psychopharmacol & Biol Psychiat 11:659-71, 1987) and later modifications by Crowley et al. (Crowley J J, et al., Pharmacol Biochem Beh 78(2):269-74, 2004). Seven- to eight-week-old (25-35 grams) male, CD-1 mice were housed for one week prior to testing. Mice (n=8-10 per dose group) were dosed intraperitoneally (ip) or orally (po) with the compound under investigation, and returned to their home cage for the appropriate pretreatment interval (45-60 min). Using tape, the mice were then suspended by the tail from a strain gauge. Activity over the next 6 minutes was scored by computer as either: 1) Immobility, 2) Escape Behavior or 3) Major Escape Behavior, based on the intensity of movements registered by the strain gauge. Total Immobility was calculated and expressed in seconds. […] Treatment effects are presented in Table 1 and FIGS. 1-6 as both raw Time Spent Immobile (in seconds±SEM [standard error of the mean]) and as % Reduction in Immobility=[1−(Treatment Immobility/Vehicle Immobility)]×100%. Similar superscripts in the Dose column of Table 1 denote values derived from the same experiment (to facilitate comparisons between individual treatments and co-administrations). Statistical analyses were performed using a 1-way ANOVA (analysis of variance) followed by a Bonferroni multiple comparison test with the overall alpha set at 0.05. In Table 1, asterisks (*) denote significant effects compared to vehicle-treated mice, while letters (a or b) denote significant effects compared to mice treated with a single compound (“a” for significance from antidepressant and “b” for significance from telenzepine). In Table 1, the symbol denotes p<0.05, two symbols denote p<0.01 and three symbols denote p<0.001). The symbols used for denoting statistical significance may be different in the corresponding figures.
# [5] = system: mice and rats; conditions: administered systemically; cited from earlier work
# [6] = system: dopamine efflux in the striatum; conditions: local microinjection; cited from earlier work
# [7] = system: GABA efflux; conditions: directly injected into the midbrain; cited from earlier work
# [8] = at 90 degrees; cited from earlier work
smiles,measurement,setting,value
Cc1scc2c1N(C(=O)CN1CCN(C)CC1)c1ccccc1NC2=O [(+) form of telenzepine],antimuscarinic activity,[1],potent antimuscarinic activity
same,factor by which the (+) form is more effective than the (−) isomer,[2],400
same,factor by which the (+) form is more potent than the (−) form,[3],50
Cc1scc2c1N(C(=O)CN1CCN(C)CC1)c1ccccc1NC2=O [(−) form],antimuscarinic activity,[1],considerably less active
"CNCCC(Oc1ccc(C(F)(F)F)cc1)c1ccccc1 (stereo not shown) [Fluoxetine, fluoxetine]",Reduction in Immobility,"[4]; 4 mg/kg ip, experiment c",0%
same,Treatment Immobility Time,"[4]; 4 mg/kg ip, experiment c",97 ± 11 s
same,Reduction in Immobility,"[4]; 4 mg/kg ip, experiment g",45%
same,Treatment Immobility Time,"[4]; 4 mg/kg ip, experiment g",81 ± 16 s
same,Reduction in Immobility,"[4]; 20 mg/kg ip, experiment g",45%
same,Treatment Immobility Time,"[4]; 20 mg/kg ip, experiment g",82 ± 16 s
same,Reduction in Immobility,"[4]; 40 mg/kg ip, experiment g",64%
same,Treatment Immobility Time,"[4]; 40 mg/kg ip, experiment g",53 ± 14 s
same,lowering of the effective antidepressant dose (estimated),[4]; to 4 mg/kg by co-administering 10 mg/kg TZP,approximately 7 fold
"CN1CCN(CC(=O)N2c3ccccc3C(=O)Nc3cccnc32)CC1 [Pirenzepine, 5,11-Dihydro-11-[(4-methyl-1-piperazinyl)acetyl]-6H-pyrido[2,3-b][1,4]benzodiazepin-6-one]",Reduction in Immobility,"[4]; 5 mg/kg ip, experiment f",−11%
same,Treatment Immobility Time,"[4]; 5 mg/kg ip, experiment f",137 ± 15 s
same,Reduction in Immobility,"[4]; 25 mg/kg ip, experiment f",27%
same,Treatment Immobility Time,"[4]; 25 mg/kg ip, experiment f",90 ± 17 s
same,Reduction in Immobility,"[4]; 50 mg/kg ip, experiment f",38%
same,Treatment Immobility Time,"[4]; 50 mg/kg ip, experiment f",76 ± 12 s
same,effect on immobility (in words),[4]; alone at 50 mg/kg ip (FIG. 1),significant reduction in immobility
same,behavioral effects,[5],failed to elicit any behavioral effects
same,dopamine efflux in the striatum,[6],decreased dopamine efflux in the striatum
"CN[C@H]1CC[C@@H](c2ccc(Cl)c(Cl)c2)c2ccccc21 [Sertraline, sertraline]",Reduction in Immobility,"[4]; 1 mg/kg ip, experiment a",24%
same,Treatment Immobility Time,"[4]; 1 mg/kg ip, experiment a",87 ± 14 s
same,Reduction in Immobility,"[4]; 5 mg/kg ip, experiment h",48%
same,Treatment Immobility Time,"[4]; 5 mg/kg ip, experiment h",63 ± 08 s
same,Reduction in Immobility,"[4]; 5 mg/kg ip, experiment h, listed as sertraline",48%
same,Reduction in Immobility,"[4]; 20 mg/kg ip, experiment h",59%
same,Treatment Immobility Time,"[4]; 20 mg/kg ip, experiment h",50 ± 16 s
same,Reduction in Immobility,"[4]; 40 mg/kg ip, experiment h",64%
same,Treatment Immobility Time,"[4]; 40 mg/kg ip, experiment h",44 ± 15 s
same,lowering of the effective antidepressant dose,[4]; to 1 mg/kg by co-administering 5 mg/kg TZP,5 fold
"Cc1scc2c1N(C(=O)CN1CCN(C)CC1)c1ccccc1NC2=O [Telenzepine, 4,9-Dihydro-3-methyl-4-[(4-methyl-1-piperazinyl)acetyl]-10H-thieno[3,4-b][1,5]benzodiazepin-10-one]",Reduction in Immobility,"[4]; 5 mg/kg ip, experiment a",30%
same,Treatment Immobility Time,"[4]; 5 mg/kg ip, experiment a",80 ± 14 s
same,Reduction in Immobility,"[4]; 5 mg/kg ip, experiment b",21%
same,Treatment Immobility Time,"[4]; 5 mg/kg ip, experiment b",90 ± 18 s
same,Reduction in Immobility,"[4]; 5 mg/kg ip, experiment d",−27%
same,Treatment Immobility Time,"[4]; 5 mg/kg ip, experiment d",159 ± 23 s
same,Reduction in Immobility,"[4]; 10 mg/kg ip, experiment c",34%
same,Treatment Immobility Time,"[4]; 10 mg/kg ip, experiment c",64 ± 15 s
same,Reduction in Immobility,"[4]; 25 mg/kg ip, experiment d",33%
same,Treatment Immobility Time,"[4]; 25 mg/kg ip, experiment d",84 ± 07 s
same,Reduction in Immobility,"[4]; 50 mg/kg ip, experiment d",51%
same,Treatment Immobility Time,"[4]; 50 mg/kg ip, experiment d",61 ± 11 s
same,Reduction in Immobility,"[4]; 60 mg/kg po, experiment e",45%
same,Treatment Immobility Time,"[4]; 60 mg/kg po, experiment e",71 ± 15 s
same,Reduction in Immobility,"[4]; 80 mg/kg po, experiment e",37%
same,Treatment Immobility Time,"[4]; 80 mg/kg po, experiment e",82 ± 18 s
same,Reduction in Immobility,"[4]; 100 mg/kg po, experiment e",55%
same,Treatment Immobility Time,"[4]; 100 mg/kg po, experiment e",59 ± 10 s
same,effect on immobility (in words),[4]; alone at 25 mg/kg ip (FIG. 2),significant reduction in immobility
same,effect on immobility (in words),[4]; alone at 60 mg/kg po (FIG. 3),significant reduction in immobility
same,GABA efflux,[7],reduced GABA efflux
same,half time of interconversion of the two forms,[8],approximately 200 hours
"COc1ccc(C(CN(C)C)C2(O)CCCCC2)cc1 (stereo not shown) [Venlafaxine, venlafaxine]",Reduction in Immobility,"[4]; 3 mg/kg ip, experiment i",8%
same,Treatment Immobility Time,"[4]; 3 mg/kg ip, experiment i",103 ± 21 s
same,Reduction in Immobility,"[4]; 10 mg/kg ip, experiment b",10%
same,Treatment Immobility Time,"[4]; 10 mg/kg ip, experiment b",103 ± 15 s
same,Reduction in Immobility,"[4]; 10 mg/kg ip, experiment i",−4%
same,Treatment Immobility Time,"[4]; 10 mg/kg ip, experiment i",116 ± 20 s
same,Reduction in Immobility,"[4]; 30 mg/kg ip, experiment i",72%
same,Treatment Immobility Time,"[4]; 30 mg/kg ip, experiment i",31 ± 09 s
same,Reduction in Immobility,"[4]; 30 mg/kg ip, experiment i, listed as venlafaxine",72%
same,lowering of the effective antidepressant dose,[4]; to 10 mg/kg by co-administering 5 mg/kg telenzepine,3 fold
